Laboratory results: ChEMBL document CHEMBL3885861, “Open TG-GATES”

Species: Rattus norvegicus
Assay: Open TG-GATES - Regimen: Single
Format: toxicity, organism-based, Sprague-Dawley
Parameters: regimen Single, gender Male, age 6 weeks
Conditions: in vivo, po, route gavage; for TG / TP / gamma-GTP / ALT / AST / CRE / Ca / Cl / DBIL / GLC / K / LDH / Na / PL / RALB / TBIL / TC / ALP: tissue Plasma; for APTT / Bas / Eos / Fbg / Hb / Ht / Lym / MCHC / MCV / Mono / PT / Plat / RBC / WBC: tissue Blood; for KIDNEY_L / KIDNEY_R / KIDNEY_TOTAL: tissue Kidney; for LIVER: tissue Liver
[1] = 0 mg/kg, 24 h, dose level Control

`COc1ccc([C@@H]2Sc3ccccc3N(CCN(C)C)C(=O)[C@@H]2OC(C)=O)cc1` [DILTIAZEM] gave a TG [1] of 84.2 mg/dL, a TP [1] of 5.4 g/dL and a gamma-GTP [1] of 1 IU/L. It also gave a TERMINAL_BW (80 mg/kg, 3 h, dose level Low) of 186.4 g, an APTT (80 mg/kg, 3 h, dose level Low) of 17.7 s and a Bas (80 mg/kg, 3 h, dose level Low) of 0.4%. For the same compound, the Eos (80 mg/kg, 3 h, dose level Low) was 0.2%, the Fbg (80 mg/kg, 3 h, dose level Low) was 282.2 mg/dL and the Hb (80 mg/kg, 3 h, dose level Low) was 12.8 g/dL. The Ht (80 mg/kg, 3 h, dose level Low) was 40%, the Lym (80 mg/kg, 3 h, dose level Low) was 70.8% and the MCHC (80 mg/kg, 3 h, dose level Low) was 32.1%. For the same compound, the MCV (80 mg/kg, 3 h, dose level Low) was 66.5 fL, the Mono (80 mg/kg, 3 h, dose level Low) was 3.4% and the PT (80 mg/kg, 3 h, dose level Low) was 14.7 s. The Plat (80 mg/kg, 3 h, dose level Low) was 124.6 x10_4/uL, the RBC (80 mg/kg, 3 h, dose level Low) was 601.8 x10_4/ul and the WBC (80 mg/kg, 3 h, dose level Low) was 115.4 x10_2/uL. The KIDNEY_L (80 mg/kg, 3 h, dose level Low) was 0.9 g, the KIDNEY_R (80 mg/kg, 3 h, dose level Low) was 0.8 g and the KIDNEY_TOTAL (80 mg/kg, 3 h, dose level Low) was 1.7 g. The LIVER (80 mg/kg, 3 h, dose level Low) was 8.4 g, the ALT (80 mg/kg, 3 h, dose level Low) was 50.8 IU/L and the AST (80 mg/kg, 3 h, dose level Low) was 85.6 IU/L. The CRE (80 mg/kg, 3 h, dose level Low) was 0.2 mg/dL, the Ca (80 mg/kg, 3 h, dose level Low) was 10.8 mg/dL and the Cl (80 mg/kg, 3 h, dose level Low) was 106.6 meq/L. It also gave a DBIL (80 mg/kg, 3 h, dose level Low) of 0.014 mg/dL, a GLC (80 mg/kg, 3 h, dose level Low) of 183.4 mg/dL and a K (80 mg/kg, 3 h, dose level Low) of 4.5 meq/L. The LDH (80 mg/kg, 3 h, dose level Low) was 74.8 IU/L, the Na (80 mg/kg, 3 h, dose level Low) was 142.2 meq/L and the PL (80 mg/kg, 3 h, dose level Low) was 134.8 mg/dL. It also gave an RALB (80 mg/kg, 3 h, dose level Low) of 2.5 g/dL, a TBIL (80 mg/kg, 3 h, dose level Low) of 0.032 mg/dL and a TC (80 mg/kg, 3 h, dose level Low) of 71.8 mg/dL. It also gave a TG (80 mg/kg, 3 h, dose level Low) of 60.2 mg/dL, a TP (80 mg/kg, 3 h, dose level Low) of 5.1 g/dL and a gamma-GTP (80 mg/kg, 3 h, dose level Low) of 1.2 IU/L. It also gave a TERMINAL_BW (80 mg/kg, 6 h, dose level Low) of 182.6 g, an APTT (80 mg/kg, 6 h, dose level Low) of 17 s and a Bas (80 mg/kg, 6 h, dose level Low) of 0%. The Eos (80 mg/kg, 6 h, dose level Low) was 0.8%, the Fbg (80 mg/kg, 6 h, dose level Low) was 314.8 mg/dL and the Ht (80 mg/kg, 6 h, dose level Low) was 40.5%. The Lym (80 mg/kg, 6 h, dose level Low) was 71.2%, the MCHC (80 mg/kg, 6 h, dose level Low) was 32.4% and the MCV (80 mg/kg, 6 h, dose level Low) was 67 fL. The Mono (80 mg/kg, 6 h, dose level Low) was 4.2%, the PT (80 mg/kg, 6 h, dose level Low) was 14.7 s and the Plat (80 mg/kg, 6 h, dose level Low) was 131.5 x10_4/uL. For the same compound, the RBC (80 mg/kg, 6 h, dose level Low) was 606 x10_4/ul, the WBC (80 mg/kg, 6 h, dose level Low) was 91.6 x10_2/uL and the KIDNEY_L (80 mg/kg, 6 h, dose level Low) was 0.8 g. It also gave a KIDNEY_R (80 mg/kg, 6 h, dose level Low) of 0.8 g, a KIDNEY_TOTAL (80 mg/kg, 6 h, dose level Low) of 1.6 g and an LIVER (80 mg/kg, 6 h, dose level Low) of 7.9 g. The ALT (80 mg/kg, 6 h, dose level Low) was 42.4 IU/L, the AST (80 mg/kg, 6 h, dose level Low) was 72.8 IU/L and the CRE (80 mg/kg, 6 h, dose level Low) was 0.2 mg/dL. The Ca (80 mg/kg, 6 h, dose level Low) was 11.1 mg/dL, the Cl (80 mg/kg, 6 h, dose level Low) was 106.8 meq/L and the DBIL (80 mg/kg, 6 h, dose level Low) was 0.014 mg/dL. For the same compound, the GLC (80 mg/kg, 6 h, dose level Low) was 176.8 mg/dL, the K (80 mg/kg, 6 h, dose level Low) was 4.1 meq/L and the LDH (80 mg/kg, 6 h, dose level Low) was 54 IU/L. The Na (80 mg/kg, 6 h, dose level Low) was 143.8 meq/L, the PL (80 mg/kg, 6 h, dose level Low) was 137.4 mg/dL and the RALB (80 mg/kg, 6 h, dose level Low) was 2.5 g/dL. The TBIL (80 mg/kg, 6 h, dose level Low) was 0.034 mg/dL, the TC (80 mg/kg, 6 h, dose level Low) was 79 mg/dL and the TG (80 mg/kg, 6 h, dose level Low) was 33.4 mg/dL. It also gave a TP (80 mg/kg, 6 h, dose level Low) of 5.3 g/dL, a gamma-GTP (80 mg/kg, 6 h, dose level Low) of 1 IU/L and a TERMINAL_BW (80 mg/kg, 9 h, dose level Low) of 181.8 g. It also gave a Bas (80 mg/kg, 9 h, dose level Low) of 0%, an Eos (80 mg/kg, 9 h, dose level Low) of 0.8% and a Fbg (80 mg/kg, 9 h, dose level Low) of 300.8 mg/dL. It also gave a Hb (80 mg/kg, 9 h, dose level Low) of 12.9 g/dL, a Ht (80 mg/kg, 9 h, dose level Low) of 40.2% and a Lym (80 mg/kg, 9 h, dose level Low) of 79.4%. For the same compound, the MCHC (80 mg/kg, 9 h, dose level Low) was 32.1%, the MCV (80 mg/kg, 9 h, dose level Low) was 66.7 fL and the Mono (80 mg/kg, 9 h, dose level Low) was 3%. It also gave a PT (80 mg/kg, 9 h, dose level Low) of 15.2 s, a Plat (80 mg/kg, 9 h, dose level Low) of 116.7 x10_4/uL and an RBC (80 mg/kg, 9 h, dose level Low) of 603.2 x10_4/ul. The WBC (80 mg/kg, 9 h, dose level Low) was 69.7 x10_2/uL, the KIDNEY_L (80 mg/kg, 9 h, dose level Low) was 0.9 g and the KIDNEY_R (80 mg/kg, 9 h, dose level Low) was 0.9 g. For the same compound, the KIDNEY_TOTAL (80 mg/kg, 9 h, dose level Low) was 1.7 g, the LIVER (80 mg/kg, 9 h, dose level Low) was 7.3 g and the ALP (80 mg/kg, 9 h, dose level Low) was 1382 IU/L. It also gave an ALT (80 mg/kg, 9 h, dose level Low) of 44 IU/L, an AST (80 mg/kg, 9 h, dose level Low) of 74.8 IU/L and a CRE (80 mg/kg, 9 h, dose level Low) of 0.1 mg/dL. The Ca (80 mg/kg, 9 h, dose level Low) was 10.7 mg/dL, the Cl (80 mg/kg, 9 h, dose level Low) was 105.8 meq/L and the DBIL (80 mg/kg, 9 h, dose level Low) was 0.016 mg/dL. For the same compound, the GLC (80 mg/kg, 9 h, dose level Low) was 176.8 mg/dL, the K (80 mg/kg, 9 h, dose level Low) was 4.1 meq/L and the LDH (80 mg/kg, 9 h, dose level Low) was 59.6 IU/L. For the same compound, the Na (80 mg/kg, 9 h, dose level Low) was 142 meq/L, the PL (80 mg/kg, 9 h, dose level Low) was 129.4 mg/dL and the RALB (80 mg/kg, 9 h, dose level Low) was 2.5 g/dL. The TBIL (80 mg/kg, 9 h, dose level Low) was 0.032 mg/dL, the TC (80 mg/kg, 9 h, dose level Low) was 69 mg/dL and the TG (80 mg/kg, 9 h, dose level Low) was 55.8 mg/dL. The TP (80 mg/kg, 9 h, dose level Low) was 5.1 g/dL, the gamma-GTP (80 mg/kg, 9 h, dose level Low) was 1 IU/L and the TERMINAL_BW (80 mg/kg, 24 h, dose level Low) was 195.1 g. The Bas (80 mg/kg, 24 h, dose level Low) was 0%, the Eos (80 mg/kg, 24 h, dose level Low) was 1% and the Fbg (80 mg/kg, 24 h, dose level Low) was 257 mg/dL. The Hb (80 mg/kg, 24 h, dose level Low) was 13.3 g/dL, the Ht (80 mg/kg, 24 h, dose level Low) was 40.6% and the Lym (80 mg/kg, 24 h, dose level Low) was 75%. It also gave an MCHC (80 mg/kg, 24 h, dose level Low) of 32.8%, an MCV (80 mg/kg, 24 h, dose level Low) of 67 fL and a Mono (80 mg/kg, 24 h, dose level Low) of 3.2%. It also gave a PT (80 mg/kg, 24 h, dose level Low) of 14.5 s, a Plat (80 mg/kg, 24 h, dose level Low) of 121.8 x10_4/uL and an RBC (80 mg/kg, 24 h, dose level Low) of 606 x10_4/ul. It also gave a WBC (80 mg/kg, 24 h, dose level Low) of 83.3 x10_2/uL, a KIDNEY_L (80 mg/kg, 24 h, dose level Low) of 0.9 g and a KIDNEY_R (80 mg/kg, 24 h, dose level Low) of 0.9 g. The KIDNEY_TOTAL (80 mg/kg, 24 h, dose level Low) was 1.7 g, the LIVER (80 mg/kg, 24 h, dose level Low) was 9.3 g and the ALP (80 mg/kg, 24 h, dose level Low) was 1732.2 IU/L. It also gave an ALT (80 mg/kg, 24 h, dose level Low) of 49 IU/L, an AST (80 mg/kg, 24 h, dose level Low) of 77.4 IU/L and a CRE (80 mg/kg, 24 h, dose level Low) of 0.2 mg/dL. The Ca (80 mg/kg, 24 h, dose level Low) was 11.2 mg/dL, the Cl (80 mg/kg, 24 h, dose level Low) was 106.8 meq/L and the DBIL (80 mg/kg, 24 h, dose level Low) was 0.016 mg/dL. For the same compound, the GLC (80 mg/kg, 24 h, dose level Low) was 187.4 mg/dL, the K (80 mg/kg, 24 h, dose level Low) was 4.3 meq/L and the LDH (80 mg/kg, 24 h, dose level Low) was 82 IU/L. It also gave a Na (80 mg/kg, 24 h, dose level Low) of 144.2 meq/L, a PL (80 mg/kg, 24 h, dose level Low) of 146.4 mg/dL and an RALB (80 mg/kg, 24 h, dose level Low) of 2.6 g/dL. For the same compound, the TBIL (80 mg/kg, 24 h, dose level Low) was 0.032 mg/dL.
